Reference: patent US6703371B1, “Preparations for reducing oxygen consumption during physical efforts” (priority 1999, dated 2004)
Where “and” joins values, the source holds several entries; their conditions need not be identical. Equal values may be shown once. Read-outs that look alike come from different tables or passages of the source.

How the values were obtained:
test subject [1] = type: in vivo, human; conditions: for change in vivo at 0.2 mg / change in vivo at 1 mg: Homo sapiens, 10 min
test subject [2] = test: Bicycle ergometer test at 100 W: antagonism between inactive (1st dosage) and active (2nd dosage) substances (Example 1b); type: in vivo, human; conditions: for Change in the oxygen consumption after 2nd dosage: relative to after 1st dosage
Protocol: (§1) 13 to Mar. 6, 1999, with a subject in good physical condition under standard conditions. The subject was required each morning in the fasting state to perform successively (without interruption) at mechanical power output of 100 W, 125 W and 150 W, each lasting 10 minutes (total test duration 30 minutes each time). […] The heat production induced by mechanical exertion was calculated from the changes in the heart rate. An alternative possibility is also to determine it on the basis of the increase in humidity caused by the perspiration (the tests are carried out in a closed room) or reduction in weight (1 g of water=2.26 kJ). […] The values indicated in table la for the “average heart rate” are in each case averages over the 30-minute duration of the test; relative values for the oxygen consumption were established on the basis of the heart rates in a known manner, and the relative values indicated in Table 1a are based on the oxygen consumption on the first day (=100%); the values listed in the column “heat production” in Table 1a give the percentage deviation of the heat production, established on the basis of the perspiration, from the average from all the tests.
(§2) It is known that the oxygen uptake can be determined by measuring the heart rate as a function of the mechanical exertion. This ergometric method is based on establishing the oxygen transport volume through the action of the heart. Since the stroke volume is essentially constant irrespective of the intensity of the mechanical work, and the increased oxygen demand caused by the increase in work results in an increase in the heart rate, the quantity of the transported oxygen can be established by determining the additional heartbeats caused by the work. A 3-stage ergometer as recommended by the World Health Organization (WHO) is used in physiology research institutes and fitness clubs around the world.

test subject [3] = test: Bicycle ergometer test at 100 W: active ingredient, sucrose, further active ingredient, amino acid/vitamin product (Example 1c); type: in vivo, human; conditions: for Average heart rate after 4th dos.: 4th dosage 100 mg of Na glutamate, 0.3 mg of folic acid, 5 μg of cyanocobalamin in 10 mg of gelatin; for Average heart rate after 2nd dos.: then 2nd dosage 2.5 g of sucrose
Protocol: as §1, §2

[4] = Oxygen-sparing action during physical work, general findings in the description; type: in vivo; conditions: result in words; for Oxygen demand after administration: even occasionally increased
test subject [5] = test: Bicycle ergometer test at 100 W: active ingredient, sucrose, further active ingredient, amino acid/vitamin product (Example 1c); type: in vivo, human; conditions: for Change in oxygen consumption after 2nd dos.: 2nd dosage 2.5 g of sucrose; for Change in oxygen consumption after 2nd dos. / Change in oxygen consumption after 4th dos. / Change in oxygen consumption after 3rd dos.: relative to preceding dosage; for Change in oxygen consumption after 4th dos.: 4th dosage Na glutamate/folic acid/cyanocobalamin/gelatin; for Average heart rate after 1st dos.: 10-minute test at 100 W
test subject [6] = conditions: 125 W
Text: Unless otherwise indicated, the tests each took place in the morning in the fasting state, with mechanical power outputs of 100 W, 125 W or 150 W being required in each case from the test subject during one or more 10-minute test periods. A bicycle ergometer from Ergo Fit (Kaiserslautern, Germany) was used for this, and the required work was controlled at 60 pedal revolutions per minute in each case (controlled by a metronome from Seiko, Japan) by means of an eddy current brake. A heart rate computer from Polar Electro (Kempele, Finland) was used for continuous measurement of the heart rate; the atmospheric pressure was measured by an electronic barograph from Altitude Instrumentation (Paris, France) with a resolution of 0.1 mbar; the temperature and relative humidity were measured by an electronic thermohygrometer. The “average heart rates” indicated in the tables are in each case averages of the particular test period. The test subject received a high-carbohydrate diet mainly composed of pasta, and meat of young animals (veal, chicken, fish) in order to ensure an adequate supply of protein, throughout the series of tests. Only 1 test was carried out on each day.
Only 1 test was carried out on each day.

test subject [7] = test: Bicycle ergometer test at 100 W with gelatin products (Example 7); type: in vivo, human; conditions: for Average heart rate after 1st dos.: 100 W; for Average heart rate before: 10-minute control test at 100 W before the 1st dosage
Protocol: In tests analogous to Example 1, the tests indicated in Table 7 were carried out with gelatin products which were produced in analogy to Examples 3-5. After a warm-up period of 5 minutes in each case firstly the heartbeats were recorded at a mechanical power output of 100 W during a 10-minute control test, then the 1st dosage was administered and immediately thereafter the heart rate was measured in a 10-minute test period with a power output of 100 W. In the case of a 2nd dosage, this further administration and a second 10-minute test period take place with a power output of 100 W immediately following the first test period.

[8] = read-out: Change in the oxygen demand
[9] = read-out: Heat production (deviation from the average of all the tests)
[10] = 3rd dosage further 0.2 mg of active ingredient after sucrose
[11] = after 0.2 mg of active ingredient
[12] = 1st dosage 0.2 mg as dilute aqueous solution
[13] = 3rd dosage further 0.2 mg of active ingredient
[14] = 3rd dosage further 1 mg of active ingredient after sucrose
[15] = after 1 mg of active ingredient
[16] = 1st dosage 1 mg as dilute aqueous solution
[17] = 3rd dosage further 1 mg of active ingredient

Compound | change in vivo at 0.2 mg (test subject [1]; [8]) [%] | change in vivo at 0.2 mg (test subject [1]; [9]) [%] | Average heart rate after 4th dos. (test subject [3]; 0.2 mg series) [per minute] | Average heart rate after 3rd dos. (test subject [3]; [10]) [per minute] | Average heart rate after 2nd dos. (test subject [3]; [11]) [per minute] | Suitability for reducing the oxygen consumption during physical work [4] | Change in oxygen consumption after 2nd dos. (test subject [5]; 0.2 mg series) | Change in oxygen consumption after 4th dos. (test subject [5]; 0.2 mg series) [%] | Average heart rate after 1st dos. (test subject [5]; [12]) [per minute] | Change in oxygen consumption after 3rd dos. (test subject [5]; [13]) | change in vivo at 1 mg (test subject [1]; [8]) [%] | Average heart rate after 4th dos. (test subject [3]; 1 mg series) [per minute] | Average heart rate after 3rd dos. (test subject [3]; [14]) [per minute] | Average heart rate after 2nd dos. (test subject [3]; [15]) [per minute] | Change in oxygen consumption after 2nd dos. (test subject [5]; 1 mg series) | Change in oxygen consumption after 4th dos. (test subject [5]; 1 mg series) [%] | Average heart rate after 1st dos. (test subject [5]; [16]) [per minute] | Change in oxygen consumption after 3rd dos. (test subject [5]; [17]) | Average heart rate before (test subject [7]) | Oxygen demand after administration [4] | also measured
COc1ccc2c3c1O[C@H]1[C@@H](O)C=C[C@H]4[C@@H](C2)N(C)CC[C@@]341 [codeine] | -29 | -27 | 82.9 | 108 | 107.3 | suitable | +69% | −50 | 73.0 | +2% | – | – | – | – | – | – | – | – | – | – | Change in the oxygen consumption after 2nd dosage (test subject [2]; 2nd dosage 0.5 mg, after 0.5 mg of flupentixol, 100 W): −57%; Change in the oxygen consumption after 2nd dosage (test subject [2]; 2nd dosage 0.5 mg, after 1 mg of lorazepam, 100 W): −59%; Change in the oxygen consumption after 2nd dosage (test subject [2]; 2nd dosage 0.5 mg, after 6 mg of amitriptyline + 2.5 mg of chlordiazepoxide, 100 W): −52%; Change in the oxygen consumption after 2nd dosage (test subject [2]; 2nd dosage 0.5 mg, after 7 mg of oxazepam, 100 W): −67%; Change in the oxygen consumption after 2nd dosage (test subject [2]; 2nd dosage 0.5 mg, after 10 mg of chlorprotixen, 100 W): −69%; Average heart rate after 2nd dosage (test subject [2]; 2nd dosage 0.5 mg, after 1st dosage of 0.5 mg of flupentixol, 100 W): 89.7 per minute; Average heart rate after 2nd dosage (test subject [2]; 2nd dosage 0.5 mg, after 1st dosage of 1 mg of lorazepam, 100 W): 91.8 per minute; Average heart rate after 2nd dosage (test subject [2]; 2nd dosage 0.5 mg, after 1st dosage of 6 mg of amitriptyline + 2.5 mg of chlordiazepoxide, 100 W): 86.5 per minute; Average heart rate after 2nd dosage (test subject [2]; 2nd dosage 0.5 mg, after 1st dosage of 7 mg of oxazepam, 100 W): 104.1 per minute; Average heart rate after 2nd dosage (test subject [2]; 2nd dosage 0.5 mg, after 1st dosage of 10 mg of chlorprotixen, 100 W): 90.0 per minute
COc1ccc2c(c1)[C@]13CCCC[C@@H]1[C@H](C2)N(C)CC3 [dextromethorphan] | -57 | -49 | 87.8 | 111 | 110.4 | suitable | +69% | −46 | 75.8 | +1% | – | – | – | – | – | – | – | – | – | – | Change in the oxygen consumption after 2nd dosage (test subject [2]; 2nd dosage 0.2 mg, after 6 mg of amitriptyline + 2.5 mg of chlordiazepoxide, 100 W): −81%; Average heart rate after 2nd dosage (test subject [2]; 2nd dosage 0.2 mg, after 1st dosage of 6 mg of amitriptyline + 2.5 mg of chlordiazepoxide, 100 W): 84.8 per minute
CN1C(=O)CN=C(c2ccccc2)c2cc(Cl)ccc21 [diazepam] | – | – | – | – | – | suitable | – | – | – | – | -44 | 86.3 | 113.1 | 111.9 | +74% | −54 | 74.8 | +2% | – | – | change in vivo at 1 mg (test subject [1]; [9]): -50%; Change in the oxygen consumption after 2nd dosage (test subject [2]; 2nd dosage 1 mg, after 3 mg of bromazepam, 100 W): −65%; Change in the oxygen consumption after 2nd dosage (test subject [2]; 2nd dosage 1 mg, after 7 mg of oxazepam, 100 W): −72%; Change in the oxygen consumption after 2nd dosage (test subject [2]; 2nd dosage 1 mg, after 10 mg of nitrazepam, 100 W): −59%; Average heart rate after 2nd dosage (test subject [2]; 2nd dosage 1 mg, after 1st dosage of 3 mg of bromazepam, 100 W): 97.0 per minute; Average heart rate after 2nd dosage (test subject [2]; 2nd dosage 1 mg, after 1st dosage of 7 mg of oxazepam, 100 W): 89.4 per minute; Average heart rate after 2nd dosage (test subject [2]; 2nd dosage 1 mg, after 1st dosage of 10 mg of nitrazepam, 100 W): 102.1 per minute; Average heart rate (test subject [6]; 1 mg, atmospheric pressure 1010.0 mbar): 80 per minute; Average heart rate (test subject [6]; 1 mg, atmospheric pressure 1010.8 mbar): 71 per minute; Average heart rate (test subject [6]; 1 mg, atmospheric pressure 1015.2 mbar): 77 per minute; Average heart rate (test subject [6]; 1 mg, atmospheric pressure 1015.9 mbar): 72 per minute; Average heart rate (test subject [6]; 1 mg, atmospheric pressure 1017.4 mbar): 74 per minute; Average heart rate (test subject [6]; 1 mg, atmospheric pressure 1017.5 mbar): 72 per minute; Average heart rate (test subject [6]; 1 mg, atmospheric pressure 1021.7 mbar): 76 per minute; Average heart rate (test subject [6]; 1 mg, atmospheric pressure 1026.3 mbar): 75 per minute; Average heart rate (test subject [6]; 2 mg, atmospheric pressure 1005.9 mbar): 76 per minute; Average heart rate (test subject [6]; 2 mg, atmospheric pressure 1007.8 mbar): 79 per minute; Effect of low atmospheric pressure on heart rate and oxygen consumption (test subject [6]; result in words): can be compensated
CN(C)CCCN1c2ccccc2CCc2ccccc21 [imipramine] | – | – | – | – | – | – | – | – | – | – | – | – | – | – | – | – | – | – | 87.7 per minute | not reduced | Average heart rate after 1st dosage (test subject [2]; 1st dosage 10 mg in 20 ml of water, 10-minute test at 100 W): 109.5 per minute; change in vivo at 10 mg (test subject [2]; Homo sapiens, 1st dosage 10 mg, 100 W, read-out: Change in the oxygen consumption after 1st dosage): 23%; Average heart rate after 1st dos. (test subject [7]; 1st dosage 10 mg): 100.2 per minute
Cc1ncc2n1-c1ccc(Cl)cc1C(c1ccccc1F)=NC2 [midazolam] | – | – | – | – | – | suitable | – | – | – | – | -42 | 83.2 | 112.1 | 110.9 | +70% | −58 | 75.9 | +2% | – | – | Effect on the heart rate, the oxygen consumption and the heat production (test subject [1]; low dosage, 125 W, result in words): marked reduction in the heart rate, the oxygen consumption and the heat production
CC(CN(C)C)CN1c2ccccc2CCc2ccccc21 (centres unmarked) [trimipramine] | – | – | – | – | – | – | – | – | – | – | – | – | – | – | – | – | – | – | 79.8 per minute and 81.7 per minute | not reduced | Average heart rate after 1st dos. (test subject [7]; 1st dosage 12.5 mg): 101.7 per minute and 97.0 per minute
